Experimental data from PubChem BioAssay (NCI).
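Each compound was tested at five concentrations against cells in 96-well plates for 48 hours. TGI is the concentration that stops growth completely.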

Legend:
Assay in all cases: NCI-60 cell line screen, 48 h
786-0 renal = system: 786-0 renal
M19-MEL melanoma = system: M19-MEL melanoma
SW-620 colon = system: SW-620 colon
DLD-1 colon = system: DLD-1 colon
HCC-2998 colon = system: HCC-2998 colon
SNB-75 CNS = system: SNB-75 CNS
OVCAR-3 ovarian = system: OVCAR-3 ovarian
OVCAR-4 ovarian = system: OVCAR-4 ovarian
SF-295 CNS = system: SF-295 CNS
HOP-92 NSCLC = system: HOP-92 NSCLC
UACC-257 melanoma = system: UACC-257 melanoma
RXF-631 renal = system: RXF-631 renal
HOP-62 NSCLC = system: HOP-62 NSCLC
IGROV1 ovarian = system: IGROV1 ovarian
MALME-3M melanoma = system: MALME-3M melanoma
HCT-15 colon = system: HCT-15 colon
SNB-78 CNS = system: SNB-78 CNS
EKVX NSCLC = system: EKVX NSCLC
SF-268 CNS = system: SF-268 CNS
SK-OV-3 ovarian = system: SK-OV-3 ovarian
NCI-H522 lung = system: NCI-H522 lung
HL-60(TB) leukemia = system: HL-60(TB) leukemia
A498 renal = system: A498 renal
NCI-H460 lung = system: NCI-H460 lung
SK-MEL-5 melanoma = system: SK-MEL-5 melanoma
COLO 205 colon = system: COLO 205 colon
UO-31 renal = system: UO-31 renal
SN12C renal = system: SN12C renal
NCI-H226 lung = system: NCI-H226 lung
SK-MEL-2 melanoma = system: SK-MEL-2 melanoma
SNB-19 CNS = system: SNB-19 CNS
ACHN renal = system: ACHN renal
HOP-18 NSCLC = system: HOP-18 NSCLC
CCRF-CEM leukemia = system: CCRF-CEM leukemia
A549 NSCLC = system: A549 NSCLC
M14 melanoma = system: M14 melanoma
OVCAR-5 ovarian = system: OVCAR-5 ovarian
UACC-62 melanoma = system: UACC-62 melanoma
DMS 114 small cell lung = system: DMS 114 small cell lung
SF-539 CNS = system: SF-539 CNS
KM12 colon = system: KM12 colon
LXFL 529 NSCLC = system: LXFL 529 NSCLC
HT29 colon = system: HT29 colon
OVCAR-8 ovarian = system: OVCAR-8 ovarian
CAKI-1 renal = system: CAKI-1 renal
K-562 leukemia = system: K-562 leukemia
SK-MEL-28 melanoma = system: SK-MEL-28 melanoma
XF 498 CNS = system: XF 498 CNS
TK-10 renal = system: TK-10 renal
DMS 273 small cell lung = system: DMS 273 small cell lung
U251 CNS = system: U251 CNS
KM20L2 colon = system: KM20L2 colon
NCI-H23 lung = system: NCI-H23 lung
LOX IMVI melanoma = system: LOX IMVI melanoma
HCT-116 colon = system: HCT-116 colon
MOLT-4 leukemia = system: MOLT-4 leukemia
SR leukemia = system: SR leukemia
RXF 393 renal = system: RXF 393 renal
RPMI-8226 leukemia = system: RPMI-8226 leukemia
HS 578T breast = system: HS 578T breast
DU-145 prostate = system: DU-145 prostate
PC-3 prostate = system: PC-3 prostate
NCI/ADR-RES ovarian = system: NCI/ADR-RES ovarian
MDA-N = system: MDA-N
MCF7 breast = system: MCF7 breast
T-47D breast = system: T-47D breast

Measured: TGI

Cc1nc2c(=O)n(C)c(=O)nc-2n(-c2ccc(Cl)cc2)c1C
84.4 µM: OVCAR-4 ovarian
not listed: LOX IMVI melanoma | HCT-116 colon | MOLT-4 leukemia | SR leukemia | RXF 393 renal | RPMI-8226 leukemia | HS 578T breast | DU-145 prostate | PC-3 prostate | NCI/ADR-RES ovarian | MDA-N | MCF7 breast | T-47D breast
> 100 µM: all other assays above

CCc1cccc(C(C)C)c1C1C(=O)C(=O)N(c2nc3ccccc3s2)C(=O)C1=O
not listed: NCI-H522 lung | OVCAR-8 ovarian | XF 498 CNS | HS 578T breast | DU-145 prostate | PC-3 prostate | NCI/ADR-RES ovarian | MDA-N | MCF7 breast | T-47D breast
> 100 µM: all other assays above

COC(=O)c1cc(CNCCc2c[nH]c3ccccc23)on1
> 94.6 µM: 786-0 renal
73.5 µM: NCI-H522 lung
67.4 µM: XF 498 CNS
> 83.3 µM: OVCAR-4 ovarian
not listed: SNB-78 CNS | HOP-18 NSCLC
> 100 µM: all other assays above
